Assay results: patent US12685297B2, “Genetically modified mouse, methods for producing the same, and uses thereof” (MacKay Memorial Hospital, priority 2023, dated 2026)

System: GYP.Mur knock-in mice and control mice
Test: Evaluation of anti-hypertensive medications: blood pressure after oral gavage
Assay type: in vivo, mouse (C57BL/6J)
Description: Mouse BP was measured using an 8-channel non-invasive blood pressure system, a conventional instrument for murine BP measurements with about 99% correlation to the invasive telemetry approach. The BP system is a traditional, tail-cuff method, with a volume-pressure recording (VPR) sensor-cuff (similar to a stethoscope) and an occlusion cuff (similar to the arm cuff for conventional human BP measurement). The instrument settings in this study were 5 acclimation cycles, 15 cycles per set, 250 mmHg as the maximal occlusion pressure, and 20 seconds for deflation. Before the measurement, the experimenter gently placed a mouse in a holder or at the entry point of the holder, from which the mouse could voluntarily walked into the holder. An occlusion cuff and a VPR cuff were then fitted onto the mouse tail. The holder carrying a cuffed mouse inside was moved to the warming platform and covered with a thermal blanket, which ensured the temperature of the tail to be within 32-35° C. during volume-pressure-based BP measurements. Invalid measurements were mostly due to unmet tail temperature or restless states of the animal, which were identified and excluded. After BP measurements, the mice were immediately put back to their own cage. The body weight (BW) of each mouse was measured for preparation of individual anti-hypertensive doses (in mg drug per Kg BW). The mice were individually administered by oral gavage of an anti-hypertensive drug mixed in 100 μL autoclaved ddH2O. The dose and maximal efficacy of an anti-hypertensive drug was determined based on the degrees of BP drop within an hour of anti-hypertensive administration. One dose of an anti-hypertensive drug was tested on a single day. On the morning of the test day, the blood pressure of GYP.Mur knock-in mice and age-matched control mice (wild-type mice) was first measured. Only the mice with SBP>120 mmHg on that day were tested with an anti-hypertensive medication. The BP and heart rates (HR) of the mice were measured at the 1st, 3rd, 5th, and the 24th hour post-medication. […]

Structure (SMILES)	duration of sustained BP-lowering effects (following oral gavage, control and GYP.Mur knock-in mice)	BP-lowering effects at the 3rd hour post-oral gavage (3rd hour post-oral gavage, compared with one hour, data not shown)	time after medication at which BP was lowered most substantially (oral gavage, control and GYP.Mur knock-in mice, data not shown)
CCOC(=O)C1=C(COCCN)NC(C)=C(C(=O)OC)C1c1ccccc1Cl (stereo not drawn) [amlodipine]	5 h		
C[C@H](CS)C(=O)N1CCC[C@H]1C(=O)O [captopril]		slightly diminished	one
